Patent US10189841B2, “Purinones as ubiquitin-specific protease 1 inhibitors” (Forma Therapeutics, Inc., priority 2015, dated 2019)

Biological target: USP1 (construct USP1 (I-785, GG670, 671AA)/UAF1 (I-677)-Flag) (Homo sapiens (Human), UniProt O94782, G670A/G671A)
Assay: Ubiquitin-Rhodamine 110 assay for USP1 activity
Type: biochemical
Conditions: USP1/UAF1 25 pM, Ub-Rh110 25 nM, 30 min preincubation
Summary of the method: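 Two formats with the USP1/UAF1 complex and 25 nM ubiquitin-rhodamine 110 in pH 8.0 Tris buffer with calcium, glutathione and detergent. Single-point screening used 10 µM, 100 pM enzyme and 45 min. Inhibition was set against no-enzyme and DMSO wells.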

USP1 (construct USP1 (I-785, GG670, 671AA)/UAF1 (I-677)-Flag), sequence (O94782 whole entry G670A/G671A): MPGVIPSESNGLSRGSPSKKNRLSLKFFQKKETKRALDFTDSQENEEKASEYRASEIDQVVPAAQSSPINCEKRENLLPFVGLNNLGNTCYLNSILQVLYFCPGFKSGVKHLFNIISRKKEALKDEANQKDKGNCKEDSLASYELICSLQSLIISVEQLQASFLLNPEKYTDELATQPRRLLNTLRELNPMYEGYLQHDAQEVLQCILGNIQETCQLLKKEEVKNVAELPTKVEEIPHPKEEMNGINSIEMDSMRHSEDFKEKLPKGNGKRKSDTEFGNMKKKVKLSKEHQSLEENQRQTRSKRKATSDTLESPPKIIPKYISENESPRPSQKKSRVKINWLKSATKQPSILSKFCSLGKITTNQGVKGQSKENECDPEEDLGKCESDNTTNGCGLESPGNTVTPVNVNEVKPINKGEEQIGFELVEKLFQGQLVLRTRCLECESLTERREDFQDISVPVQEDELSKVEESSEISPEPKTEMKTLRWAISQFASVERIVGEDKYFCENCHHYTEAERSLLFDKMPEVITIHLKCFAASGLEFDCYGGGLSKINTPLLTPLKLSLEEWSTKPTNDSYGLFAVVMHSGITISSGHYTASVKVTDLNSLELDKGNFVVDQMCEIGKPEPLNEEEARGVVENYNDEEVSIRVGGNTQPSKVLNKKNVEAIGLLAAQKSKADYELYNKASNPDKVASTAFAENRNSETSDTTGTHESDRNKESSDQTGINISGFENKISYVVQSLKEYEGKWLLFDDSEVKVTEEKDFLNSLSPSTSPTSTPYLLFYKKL
USP1 (construct USP1 (I-785, GG670, 671AA)/UAF1 (I-677)-Flag), sequence (Q8TAF3 whole entry partner): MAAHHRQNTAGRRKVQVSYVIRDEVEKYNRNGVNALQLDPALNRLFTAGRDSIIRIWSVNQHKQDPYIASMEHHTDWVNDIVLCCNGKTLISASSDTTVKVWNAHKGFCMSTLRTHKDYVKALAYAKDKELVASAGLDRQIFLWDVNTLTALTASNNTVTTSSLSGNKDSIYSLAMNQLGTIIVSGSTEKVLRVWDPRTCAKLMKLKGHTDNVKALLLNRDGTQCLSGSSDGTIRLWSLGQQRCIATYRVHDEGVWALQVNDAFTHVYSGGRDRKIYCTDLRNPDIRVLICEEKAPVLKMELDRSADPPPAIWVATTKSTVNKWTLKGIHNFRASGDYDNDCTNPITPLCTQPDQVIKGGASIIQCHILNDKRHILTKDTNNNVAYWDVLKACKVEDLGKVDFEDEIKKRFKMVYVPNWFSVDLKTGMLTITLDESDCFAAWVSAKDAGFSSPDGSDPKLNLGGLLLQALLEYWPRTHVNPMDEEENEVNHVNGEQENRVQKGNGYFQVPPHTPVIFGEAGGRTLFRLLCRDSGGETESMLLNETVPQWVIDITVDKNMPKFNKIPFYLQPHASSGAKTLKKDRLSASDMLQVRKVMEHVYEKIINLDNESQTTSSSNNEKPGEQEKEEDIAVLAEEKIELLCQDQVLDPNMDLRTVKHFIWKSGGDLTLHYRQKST

SMILES	IC50
CNC(=O)N1CCC(c2ccn(-c3ccc(Cn4c(=O)[nH]c5cnc(-c6ccccc6C(C)C)nc54)cc3)n2)CC1 [Compound I-480, 4-(1-(4-((2-(2-isopropylphenyl)-8-oxo-7,8-dihydro-9H-purin-9-yl)methyl)phenyl)-1H-pyrazol-3-yl)-N-methylpiperidine-1-carboxamide]	< 50 nM
CC(C)NC(=O)Nc1ccc(Cn2c(=O)n(C)c3cnc(-c4ccccc4C(C)C)nc32)cc1 [Compound I-481, 1-isopropyl-3-(4-((2-(2-isopropylphenyl)-7-methyl-8-oxo-7,8-dihydro-9H-purin-9-yl)methyl)phenyl)urea]	50 to 200 nM
COCCNC(=O)Nc1ccc(Cn2c(=O)n(C)c3cnc(-c4ccccc4C(C)C)nc32)cc1 [Compound I-482, 1-(4-((2-(2-isopropylphenyl)-7-methyl-8-oxo-7,8-dihydro-9H-purin-9-yl)methyl)phenyl)-3-(2-methoxyethyl)urea]	200 to 2000 nM
CC(C)c1ccccc1-c1ncc2c(n1)n(Cc1ccc(NC(=O)NC3CC3)cc1)c(=O)n2C [Compound I-483, 1-cyclopropyl-3-(4-((2-(2-isopropylphenyl)-7-methyl-8-oxo-7,8-dihydro-9H-purin-9-yl)methyl)phenyl)urea]	200 to 2000 nM
CC(C)NC(=O)N(C)c1ccc(Cn2c(=O)n(C)c3cnc(-c4ccccc4C(C)C)nc32)cc1 [Compound I-484, 3-isopropyl-1-(4-((2-(2-isopropylphenyl)-7-methyl-8-oxo-7,8-dihydro-9H-purin-9-yl)methyl)phenyl)-1-methylurea]	200 to 2000 nM
COCCNC(=O)N(C)c1ccc(Cn2c(=O)n(C)c3cnc(-c4ccccc4C(C)C)nc32)cc1 [Compound I-485, 1-(4-((2-(2-isopropylphenyl)-7-methyl-8-oxo-7,8-dihydro-9H-purin-9-yl)methyl)phenyl)-3-(2-methoxyethyl)-1-methylurea]	> 2000 nM
CC(C)c1ccccc1-c1ncc2c(n1)n(Cc1ccc(N(C)C(=O)NC3CC3)cc1)c(=O)n2C [Compound I-486, 3-cyclopropyl-1-(4-((2-(2-isopropylphenyl)-7-methyl-8-oxo-7,8-dihydro-9H-purin-9-yl)methyl)phenyl)-1-methylurea]	200 to 2000 nM
CC(C)NC(=O)N1CCC(F)(Cn2c(=O)[nH]c3cnc(-c4ccccc4C(C)C)nc32)CC1 [Compound I-487, 4-fluoro-N-isopropyl-4-((2-(2-isopropylphenyl)-8-oxo-7,8-dihydro-9H-purin-9-yl)methyl)piperidine-1-carboxamide]	> 2000 nM
CC(C)c1ccccc1-c1ncc2c(n1)n(Cc1ccc(NCC3CC3)cc1)c(=O)n2C [Compound I-488, 9-(4-((cyclopropylmethyl)amino)benzyl)-2-(2-isopropylphenyl)-7-methyl-7,9-dihydro-8H-purin-8-one]	50 to 200 nM
COCCNc1ccc(Cn2c(=O)n(C)c3cnc(-c4ccccc4C(C)C)nc32)cc1 [Compound I-489, 2-(2-isopropylphenyl)-9-(4-((2-methoxyethyl)amino)benzyl)-7-methyl-7,9-dihydro-8H-purin-8-one]	50 to 200 nM
CC(C)c1ccccc1-c1ncc2c(n1)n(Cc1ccc(N(C)CC3CC3)cc1)c(=O)n2C [Compound I-490, 9-(4-((cyclopropylmethyl)(methyl)amino)benzyl)-2-(2-isopropylphenyl)-7-methyl-7,9-dihydro-8H-purin-8-one]	200 to 2000 nM
COCCN(C)c1ccc(Cn2c(=O)n(C)c3cnc(-c4ccccc4C(C)C)nc32)cc1 [Compound I-491, 2-(2-isopropylphenyl)-9-(4-((2-methoxyethyl)(methyl)amino)benzyl)-7-methyl-7,9-dihydro-8H-purin-8-one]	200 to 2000 nM
CC(C)c1ccccc1-c1ncc2c(n1)n(CC1CCN(c3nncs3)CC1)c(=O)n2C [Compound I-492, 9-((1-(1,3,4-thiadiazol-2-yl)piperidin-4-yl)methyl)-2-(2-isopropylphenyl)-7-methyl-7,9-dihydro-8H-purin-8-one]	> 2000 nM
CC(C)c1ccccc1-c1ncc2c(n1)n(CC1CCN(c3ncccn3)CC1)c(=O)n2C [Compound I-493, 2-(2-isopropylphenyl)-7-methyl-9-((1-(pyrimidin-2-yl)piperidin-4-yl)methyl)-7,9-dihydro-8H-purin-8-one]	> 2000 nM
Cc1nc(N2CCC(Cn3c(=O)n(C)c4cnc(-c5ccccc5C(C)C)nc43)CC2)c(C)s1 [Compound I-494, 9-((1-(2,5-dimethylthiazol-4-yl)piperidin-4-yl)methyl)-2-(2-isopropylphenyl)-7-methyl-7,9-dihydro-8H-purin-8-one]	50 to 200 nM
CC(C)c1ccccc1-c1ncc2[nH]c(=O)n(C3CCC34CN(c3cccnc3)C4)c2n1 (centres unmarked) [Compound I-495, 2-(2-isopropylphenyl)-9-(2-(pyridin-3-yl)-2-azaspiro[3.3]heptan-5-yl)-7,9-dihydro-8H-purin-8-one]	200 to 2000 nM

SMILES	IC50
CCn1ccnc1-c1ccc(Cn2c(=O)n(C)c3cnc(-c4ccccc4C(C)C)nc32)cc1 [Compound I-496, 9-(4-(1-ethyl-1H-imidazol-2-yl)benzyl)-2-(2-isopropylphenyl)-7-methyl-7,9-dihydro-8H-purin-8-one]	< 50 nM
CC(C)c1ccccc1-c1ncc2c(n1)n(Cc1ccc(-c3nccn3C(C)C)cc1)c(=O)n2C [Compound I-497, 9-(4-(1-isopropyl-1H-imidazol-2-yl)benzyl)-2-(2-isopropylphenyl)-7-methyl-7,9-dihydro-8H-purin-8-one]	< 50 nM
COCCn1ccnc1-c1ccc(Cn2c(=O)n(C)c3cnc(-c4ccccc4C(C)C)nc32)cc1 [Compound I-498, 2-(2-isopropylphenyl)-9-(4-(1-(2-methoxyethyl)-1H-imidazol-2-yl)benzyl)-7-methyl-7,9-dihydro-8H-purin-8-one]	< 50 nM
CC(C)c1ccccc1-c1ncc2c(n1)n(Cc1ccc(-c3nccn3C3CCNCC3)cc1)c(=O)n2C [Compound I-499, 2-(2-isopropylphenyl)-7-methyl-9-(4-(1-(piperidin-4-yl)-1H-imidazol-2-yl)benzyl)-7,9-dihydro-8H-purin-8-one]	< 50 nM
CC(C)c1ccccc1-c1ncc2c(n1)n(Cc1ccc(-c3nccn3C(F)F)cc1)c(=O)n2C [Compound I-500, 9-(4-(1-(difluoromethyl)-1H-imidazol-2-yl)benzyl)-2-(2-isopropylphenyl)-7-methyl-7,9-dihydro-8H-purin-8-one]	< 50 nM
Cc1cn(C)c(N2CCC(Cn3c(=O)n(C)c4cnc(-c5ccccc5C(C)C)nc43)CC2)n1 [Compound I-501, 9-((1-(1,4-Dimethyl-1H-imidazol-2-yl)piperidin-4-yl)methyl)-2-(2-isopropylphenyl)-7-methyl-7,9-dihydro-8H-purin-8-one]	50 to 200 nM
CC(C)c1ccccc1-c1ncc2[nH]c(=O)n(CC3CN(c4nccc(C(F)(F)F)n4)C3)c2n1 [Compound I-502, 2-(2-Isopropylphenyl)-9-((1-(4-(trifluoromethyl)pyrimidin-2-yl)azetidin-3-yl)methyl)-7,9-dihydro-8H-purin-8-one]	> 2000 nM
Cc1cc(C(=O)N(C)C)nn1-c1ccc(Cn2c(=O)[nH]c3cnc(-c4ccccc4C(C)C)nc32)cc1 [Compound I-503, 1-(4-((2-(2-Isopropylphenyl)-8-oxo-7,8-dihydro-9H-purin-9-yl)methyl)phenyl)-N,N,5-trimethyl-1H-pyrazole-3-carboxamide]	< 50 nM
Cc1cc(C(=O)N(C)C)nn1-c1ccc(Cn2c(=O)[nH]c3cnc(-c4ccccc4C4CC4)nc32)cc1 [Compound I-504, 1-(4-((2-(2-Cyclopropylphenyl)-8-oxo-7,8-dihydro-9H-purin-9-yl)methyl)phenyl)-N,N,5-trimethyl-1H-pyrazole-3-carboxamide]	50 to 200 nM
CC(C)c1ccccc1-c1ncc2[nH]c(=O)n(CC3(F)CCN(c4cccnc4)CC3)c2n1 [Compound I-505, 9-((4-Fluoro-1-(pyridin-3-yl)piperidin-4-yl)methyl)-2-(2-isopropylphenyl)-7,9-dihydro-8H-purin-8-one]	200 to 2000 nM
CC(C)c1ccccc1-c1ncc2[nH]c(=O)n(Cc3ccc(-c4nc(C(F)(F)F)cn4CCO)cc3)c2n1 [Compound I-506, 9-(4-(1-(2-hydroxyethyl)-4-(trifluoromethyl)-1H-imidazol-2-yl)benzyl)-2-(2-isopropylphenyl)-7,9-dihydro-8H-purin-8-one]	< 50 nM
CCn1c(=O)n(Cc2ccc(-c3nc(C(F)(F)F)cn3C)cc2)c2nc(-c3cccnc3C(C)C)ncc21 [Compound I-507, 7-Ethyl-2-(2-isopropylpyridin-3-yl)-9-(4-(1-methyl-4-(trifluoromethyl)-1H-imidazol-2-yl)benzyl)-7,9-dihydro-8H-purin-8-one]	< 50 nM
CC(C)c1ccccc1-c1ncc2[nH]c(=O)n(Cc3cnc(-n4cccn4)cn3)c2n1 [Compound I-508, 9-((5-(1H-Pyrazol-1-yl)pyrazin-2-yl)methyl)-2-(2-isopropylphenyl)-7,9-dihydro-8H-purin-8-one]	> 2000 nM
CC(C)c1ccccc1-c1ncc2[nH]c(=O)n(Cc3ncc(-n4cccn4)cn3)c2n1 [Compound I-509, 9-((5-(1H-pyrazol-1-yl)pyrimidin-2-yl)methyl)-2-(2-isopropylphenyl)-7,9-dihydro-8H-purin-8-one]	> 2000 nM
Cc1cc(C)n(-c2cnc(Cn3c(=O)[nH]c4cnc(-c5ccccc5C(C)C)nc43)cn2)n1 [Compound I-510, 9-((5-(3,5-Dimethyl-1H-pyrazol-1-yl)pyrazin-2-yl)methyl)-2-(2-isopropylphenyl)-7,9-dihydro-8H-purin-8-one]	50 to 200 nM
Cc1cc(C)n(-c2cnc(Cn3c(=O)[nH]c4cnc(-c5ccccc5C(C)C)nc43)nc2)n1 [Compound I-511, 9-((5-(3,5-Dimethyl-1H-pyrazol-1-yl)pyrimidin-2-yl)methyl)-2-(2-isopropylphenyl)-7,9-dihydro-8H-purin-8-one]	200 to 2000 nM
